Assay results reported in ChEMBL document CHEMBL1133801, “Synthesis, characterisation and antiamoebic activity of new thiophene-2-carboxaldehyde thiosemicarbazone derivatives and their cyclooctadiene Ru(II) complexes” (Bioorg Med Chem Lett, 2001).
In brackets after ≈: the same amount, converted by molar mass.

Test system: Entamoeba histolytica
Experiment: In vitro antiamoebic activity was evaluated against HK-9 strain of Entamoeba histolytica
Format: functional, organism-based

Structure (SMILES) | IC50
S=C(N/N=C/c1cccs1)NC1CCCCCCC1 | 0.5 µg/mL (≈ 1.69 µM)
Cc1ncc([N+](=O)[O-])n1CCO [METRONIDAZOLE] | 0.22 µg/mL (≈ 1.29 µM)

Continued, values first:

IC50 | Structure (SMILES)
0.56 µg/mL (≈ 2.09 µM) | S=C(N/N=C/c1cccs1)NC1CCCCC1
0.64 µg/mL (≈ 2.53 µM) | S=C(N/N=C/c1cccs1)NC1CCCC1
0.7 µg/mL (≈ 2.62 µM) | S=C(N/N=C/c1cccs1)N1CCCCCC1
